Results: patent publication US4418068A, “Antiestrogenic and antiandrugenic benzothiophenes” (Eli Lilly and Company, priority 1981, dated 1983)

What was measured:
[1] = test system: androgen-stimulated prostate growth; test: Anti-Androgen Test, immature male rats (ventral prostate weight); assay type: in vivo
Method: The animals used in this test were adult male rats having a body weight which averaged about 330 g. when the experiment ended. All of the animals to be used in the experiment were castrated by the scrotal route, and were held untreated for 3 days. On the fourth day, subcutaneous administration of 0.1 mg./day of an exogenous androgen, testosterone propionate, was begun, and was continued for seven consecutive days. An untreated control group of animals received injections of 0.1 ml./day of corn oil as a blank treatment. The compound of this invention was administered orally or subcutaneously to the treated animals in 0.1 ml. of corn oil, at the same time that the androgen was administered. The animals were sacrificed 24 hours after the last injection of testosterone propionate, the ventral prostate glands were removed and weighed, and the mean of the weights of each treatment group was reported.
This experiment was carried out in the same manner as Experiment A above, except that the test animals were immature male rats, weighing about 120 g. each at sacrifice. Each treatment group consisted of six or seven animals. All treatments in this experiment were administered by subcutaneous injection. The amount of the androgen administered was only 20 mcg./day because of the small size of the animals.
This experiment was also conducted in immature rats having average body weight of about 115 g. when the experiment ended. In other respects, the experiment was as described under Experiment B above. The treatment groups consisted of ten animals each, except for the androgen only group, of 16 animals, and the 5 mg./kg. group, of nine animals.

[2] = test system: DMBA-induced mammary tumors; test: Tests Against DMBA-Induced mammary tumors; assay type: in vivo, adult female virgin rats
Source text: Mammary tumors were induced in adult female virgin rats by a single 20-mg. oral dose of 7,12-dimethylbenzanthracene. Within about six weeks, visible and palpable tumors were present in the mammary tissue of the rats, and the rats were allocated into treatment and control groups in such a way that each group contained animals having approximately the same size and number of tumors. The size of the tumors was estimated by measuring their cross-sectional area. […]
[…] The treated animals received 1 mg./kg. per day of 6-methoxy-2-(4-hydroxyphenyl)-3-[4-(2-piperidinoethoxy)benzoyl]benzo[b]thiophene, hydrochloride, as a subcutaneous injection in corn oil. The animals were not ovariectomized at the end of the experiment.

estrogenic response = test: Estrogenic Response Test, mature ovariectomized mice (uterine weight); assay type: in vivo, adult ovariectomized mice; conditions: Experiment E, s.c.
Method: The first test reported below is used to determine the estrogenic potency of compounds. It is well known that many compounds having antiestrogenic activity also, typically, have estrogenic activity. As has been explained, estrogenic activity is a liability in an antiestrogen, and thus it is important to identify antiestrogens having a minimum amount of estrogenic activity. This test was conducted with immature 40-45 g. female rats, immature 11-13 g. mice, and adult ovariectomized mice. The rats were tested in groups of six, and mice in groups of ten. All of the laboratory animals were from standardized strains and were equilibrated to the laboratory before the test started. Each test was begun by administering the test compound daily for three days, as a subcutaneous injection or by oral gavage, as indicated below in the reports of individual experiments. Untreated control animals were included in each experiment, along with animals to which estradiol was administered subcutaneously. The estradiol-treated animals provided positive controls, showing the physiological effect of a potent estrogen on the individual group of animals used in the experiment. […] The test animals were treated for three days and sacrificed on the fourth day, and the uteri were removed, freed of extraneous tissue, and blotted with paper towels. The uteri were weighed to the nearest 0.1 mg. The tables below report the results of representative experiments. The doses of estradiol and of the compound of this invention are given as the total of the three daily doses. The uterine weights are given, in mg., as the means of all of the organ weights of the animals in a group. Compounds are referred to by their example numbers above.

[3] = test system: estrogenic response of estradiol; test: Antiestrogenic Test, mature ovariectomized mice (uterine weight); assay type: in vivo, adult ovariectomized mice; conditions: Experiment A, s.c. + estradiol 0.3 mcg.
Method: This test was conducted with immature 40-45 g. female rats, immature 11-13 g. mice, and adult ovariectomized mice. The rats were tested in groups of six, and mice in groups of ten. All of the laboratory animals were from standardized strains and were equilibrated to the laboratory before the test started. Each test was begun by administering the test compound daily for three days, as a subcutaneous injection or by oral gavage, as indicated below in the reports of individual experiments.
The test animals were treated for three days and sacrificed on the fourth day, and the uteri were removed, freed of extraneous tissue, and blotted with paper towels. The uteri were weighed to the nearest 0.1 mg.
The uterine weights are given, in mg., as the means of all of the organ weights of the animals in a group. Compounds are referred to by their example numbers above.
The same standardized types of laboratory animals which were used in the experiments described above were also used in these experiments. […] Untreated control animals were used in each experiment. […] The dosage and sacrifice schedule, and the method of determining uterine weights and reporting data, were the same as the methods described above under Test 1.

[4] = Experiment B, 20 mg./kg./day, orally, four weeks
[5] = Experiment C, low dose 20 mg./kg./day, four weeks

With `O=C(c1ccc(OCCN2CCCCC2)cc1)c1c(-c2ccc(O)cc2)sc2cc(O)ccc12` [Example 3, 6-hydroxy-2-(4-hydroxyphenyl)-3-[4-(2-piperidinoethoxy)benzoyl]benzo[b]thiophene] the “Mean Prostate Weight” value ([1]; Experiment B, 0.5 mg./kg./day s.c. + androgen 20 mcg./day) was 33.8 mg, the “average prostate weight, one animal excluded” value ([1]; Experiment B, 0.5 mg./kg./day s.c. + androgen, animal with 54 mg. prostate excluded) was 30.5 and the “Mean Prostate Weight” value ([1]; Experiment B, 5 mg./kg./day s.c. + androgen 20 mcg./day) was 36.6 mg. For the same molecule, the “Mean Prostate Weight” value ([1]; Experiment C, 0.05 mg./kg./day s.c. + androgen) was 34.0 mg, the “Mean Prostate Weight” value ([1]; Experiment C, 0.5 mg./kg./day s.c. + androgen) was 31.1 mg and the “Mean Prostate Weight” value ([1]; Experiment C, 5 mg./kg./day s.c. + androgen) was 29.0 mg. For the same molecule, the “average total cross-sectional area of tumor” value ([2]; Experiment A, oral 0.1, 5, 10, 20 mg./kg./day in successive two-week periods, 8 weeks) was 345 square millimeters, the “total cross-sectional area of tumor, lower end of range” value ([2]; Experiment A, oral, 8 weeks) was “complete regression” and the “total cross-sectional area of tumor, upper end of range” value ([2]; Experiment A, oral, 8 weeks, one animal, tumors not estrogen-dependent) was ≤ 1550 sq. mm. The “animals with completely regressed tumors” value [2, 4] was “one of the compound-treated animals had completely regressed”, the “average total tumor area” value [2, 4] was 152 square millimeters and the “growth of the large tumor (668 square millimeters)” value ([2]; Experiment B, 20 mg./kg./day, orally, since second week, shrank after ovariectomy) was “its growth had been checked, and it had not significantly grown”. For the same molecule, the average tumor area ([2]; Experiment C, high dose 40 mg./kg./day, four weeks) was 304 square millimeters, the “average cross-sectional tumor area” value [2, 5] was 441 square millimeters and the “tumor area, lower end of range” value [2, 5] was “no tumors present”. For the same molecule, the “tumor area, upper end of range” value [2, 5] was ≤ 1907 square millimeters, the “Uterine weight” value (estrogenic response; total dose 3 mg.) was 23.1 mg and the “Uterine weight” value (estrogenic response; total dose 0.3 mcg.) was 18.2 mg. For the same molecule, the “Uterine weight” value (estrogenic response; total dose 3 mcg.) was 25.6 mg, the “Uterine weight” value (estrogenic response; total dose 30 mcg.) was 26.2 mg and the “Uterine weight” value (estrogenic response; total dose 300 mcg.) was 24.8 mg. The Uterine weight ([3]; 3 mg.) was 21.3 mg, the Uterine weight ([3]; 0.3 mcg.) was 54.9 mg and the Uterine weight ([3]; 3 mcg.) was 48.7 mg. For the same molecule, the Uterine weight ([3]; 30 mcg.) was 31.1 mg and the Uterine weight ([3]; 300 mcg.) was 22.1 mg.
